# Experimental data: the SangsterLogP compilation
row,logP,Structure (SMILES)
1,0.99,NC(=Nc1ccccc1)NN=Cc1ccc2ccccc2n1
2,2.33,CCCC(CCC)=NNC(N)=Nc1ccccc1
3,1.18,N=C(N)NN=Cc1ccccc1
4,2.17,CCCCCC(CCC)=NNC(=N)N
5,1.96,NC(N)=N/N=C(\c1ccccc1)c1cccs1
6,2.08,CCC/C(=N\NC(N)=Nc1ccccc1)c1ccccc1
7,1.73,CCCC(CCC)=NNC(=N)N
8,0.98,NC(N)=N/N=C/c1cccs1
9,1.05,CC(=NN=C(N)N)c1cccs1
10,2.18,C/C(=N/N/C(N)=N/c1ccccc1)c1ccccc1
11,2.08,CCCCCC/C(C)=N\N=C(N)N
12,2.05,CCCCC(C)=NNC(N)=Nc1ccccc1
